Ends that are not written are not given here.
Tested on: UBE2G2
Assay: CHX chase: UBE2G2 turnover in HT1080 AUP1 KO cells
Assay type: cell-based, human
Conditions: GFP fusion transfected with MYC-UBE2G2, HT1080 AUP1 KO, compared with GFP-SCR
Protocol: Fig 7 G2BR^AUP1 protects UBE2G2 from degradation. (A) Indicated cells were assessed for steady state levels and turnover of endogenous UBE2G2 by CHX chase. (B) Transcript levels of endogenous UBE2G2 in AUP1 KO cells compared to HT1080 as determined by qPCR. Mean and standard deviation from three independent experiments is shown. […] (D) AUP1 KO cells were transfected with plasmids encoding MYC-UBE2G2 and GFP fusions of either a scrambled G2BR (SCR), G2BR^gp78, or G2BR^AUP1, and the turnover of UBE2G2 was assessed. (E) Relative abundance of gp78 (left panel) and AUP1 (right panel) in HT1080 cells was determined by resolving indicated amounts (in pmoles) of purified GST-gp78 (aa 429 to 611) or GST-AUP1 (aa 61 to 410) fusions alongside approximately 1 × 10^4 cellular equivalents of cell lysate and immunoblotting with gp78 or AUP1 antibodies. For each antibody, the amount of immunoreactivity in the lysate was compared to a defined quantity of a GST fusion protein of gp78 or AUP1 spanning the epitope recognized by the probing antibody. […] The data underlying this figure can be found in S1 and S8 Data. aa, amino acid; AUP1, ancient ubiquitous protein 1; CHX, cycloheximide; G2BR, UBE2G2 Binding Region; KO, knockout; qPCR, quantitative polymerase chain reaction; WT, wild type. […]

With “GFP-G2BR^AUP1: GFP fusion of AUP1 aa 378 to 404 (SSWARQESLQERKQALYEYARRRFTER; also: GFP fusion; UniProt Q9Y679 378-404, looked up, fragment)” the “UBE2G2 degradation and steady state level” value was “protected UBE2G2 from degradation and increased the steady state level of this E2”.

Reference: PMC8699718, “A structurally conserved site in AUP1 binds the E2 enzyme UBE2G2 and is essential for ER-associated degradation” (PLoS Biology, 2021)
